Assay [1] deals with verotoxin producing E. coli (VTEC) cells. The class given is cell-based.
The subject of another assay is K12 E. coli. The experiment in a line: Immunocapture with anti-E. coli antibody beads and HPG metabolic labeling of K12 E. coli. It is filed as cell-based. To be noted: 30 minutes in M9 media, anti-E. coli antibody beads, Alexa488-azide. The method, then:
FIG. 11: Metabolic label incorporation, immunocapture and fluorescence identification of live K12 strain E. coli. […] M280 streptavidin-coated magnetic beads treated with PBS (“Untreated”) or PBS containing biotin-tagged Anti-E. coli antibody were then added to the culture for 1 hour before the beads were washed in PBS and reacted with Alexa488-azide to fluorescently label surface proteins. Fluorescence levels are adjusted above background detected for cells grown in the presence of methionine.
Metabolic labeling is compatible with strain-specific immunocapture using magnetic beads coated with antibodies directed to specific bacteria. This method has the potential to concentrate specific strains of bacteria from food or water samples, while simultaneously allowing bacteria to acquire the functionalized biomolecular precursor and incorporate it in target biomolecules. Captured bacteria are then identified as living or dead by a subsequent bioorthogonal reaction and detection by fluorescence microscopy. […] M280 magnetic beads treated with PBS or biotin-tagged anti-E. coli antibody were co-incubated with the E. coli. Bacteria/bead aggregates were washed in PBS, then reacted with Alexa488-azide to fluorescently identify living bacteria captured on the M280 magnetic beads.

The subject of the next assay is L. innocua. Description: Capture of HPG-labeled, biotin-azide reacted L. innocua on streptavidin-coated magnetic beads. To be noted: biotin-azide 100 μM, M280 Dynabeads 1 hour. It is filed as cell-based, Listeria innocua. From the text: (§1) FIG. 6: Capture via unnatural amino acid metabolic labeling of live gram negative (E. coli) and gram positive (L. innocua) bacteria.
(§2) E. coli and L. innocua cells metabolically labeled by HPG were further investigated to determine if they could be captured on a surface via the incorporated amino acid analogue.

The test system of assay [2] is Listeria innocua strains HPB 34 and 118. The experiment in a line: Metabolic labeling of Listeria innocua with HPG, Alexa488-azide, fluorescence microscopy. The following applies: HPG 100 μg/ml, HTM minimal medium, 16 h at 30° C. It is filed as cell-based. The method, then:
In addition to gram negative E. coli strains, gram positive Listeria strains were investigated to probe the diversity of bacteria susceptible to this labeling strategy. Two strains of Listeria innocua were cultured in HTM minimal medium containing the methionine biosynthesis inhibition amino acids, in the presence of methionine (100 μg/ml) or HPG (100 μg/ml) for 16 h at 30° C., then reacted with Alexa488-azide as described earlier.

Assay [3] relates to BL21 E. coli. The experiment in a line: Dual metabolic labeling (HPG and KDO-azide) of BL21 E. coli, fluorescence and bead capture. The class given is cell-based. The following applies: HPG and KDO-azide together. On the procedure:
FIG. 10: Dual metabolic label incorporation, fluorescence labeling and capture of live lab strain E. coli. […] The cells were first reacted with biotin-azide to biotinylate surface proteins, then reacted with Alexa488-alkyne to fluorescently label LPS molecules. Surface biotinylation was either fluorescently detected after incubation with Cy3-streptavidin (top panels), or bacteria were captured after incubation with streptavidin-coated magnetic beads (bottom panels). Fluorescence levels are adjusted above background detected for cells grown in the presence of KDO and methionine.
Beyond identification of living cells, this method has the potential to discriminate between gram positive and gram negative bacteria as functionalized KDO will only be incorporated into LPS of gram negative cells, whereas HPG should not discriminate between the two. This method may also be used to capture living bacteria via incorporation of HPG, and fluorescent identification of gram negative strains via incorporation of KDO-azide. […] Methionine biosynthesis was then inhibited and either methionine or HPG were added to the cultures and incubated for 16 hours. Cells were reacted with biotin-azide to label surface proteins containing HPG, then reacted with Alexa488-alkyne to fluorescently label LPS containing KDO-azide. […]

For assay [4], the system named is BL21 E. coli. Description: Capture of HPG-labeled, biotin-azide reacted E. coli on streptavidin-coated magnetic beads. It is filed as cell-based. The following applies: biotin-azide 100 μM, M280 Dynabeads 1 hour.
Text: as §1, §2

Assay [5] relates to VTEC strain of serotype O45:H2. The experiment in a line: Metabolic labeling of VTEC O45:H2 with KDO-alkyne, Alexa488-azide, fluorescence microscopy. It is filed as cell-based, E. coli. The following applies: overnight culture. The source says: Metabolic labeling of VTEC was also investigated to determine if this labeling strategy could be applied to the detection of live pathogenic bacteria. […] Therefore, targeting LPS of bacteria with a KDO analogue can also be used to identify contamination by living pathogenic strains of E. coli.

Consider `C#CCCC(N)C(=O)O` (stereo not drawn) [HPG, homopropargylglycine], for which the “contact time after which metabolic label incorporation is detected” value in assay [1] is 30 min. Besides, the “fluorescence labeling after reaction with Alexa488-azide” value in assay [1] is listed as “fluorescently labeled”; in assay [2], “labeled efficiently”. The “identification of captured bacteria as living by fluorescence” value with K12 E. coli is “identified as being alive”. Besides, the “capture on streptavidin coated beads via incorporated HPG” value in the assay with L. innocua is “multiple E. coli and L. innocua cells bound to the streptavidin coated beads”; with BL21 E. coli [4], “multiple E. coli and L. innocua cells bound to the streptavidin coated beads”. For the same compound, the “dual metabolic label incorporation” value with BL21 E. coli [3] is given as “capable of incorporating both”.
Take `C#CCCC(=O)NC[C@@H](O)C1OC(O)(C(=O)O)C[C@@H](O)[C@H]1O` (stereo partly drawn) [KDO-alkyne]: the “incorporation into LPS molecules” value in assay [5] was “capable of incorporating KDO-alkyne into LPS molecules”.
Turning to `[N-]=[N+]=NC[C@@H](O)C1OC(O)(C(=O)O)C[C@@H](O)[C@H]1O` (stereo partly drawn) [KDO-azide], the “dual metabolic label incorporation” value in the assay on BL21 E. coli [3] is given as “capable of incorporating both”.

Source of the values: patent US10745735B2 (priority 2013, dated 2020).
